Measurements reported in patent US12048706B2, “Methods of treating epilepsy or status epilepticus” (Sage Therapeutics, Inc., priority 2012, dated 2024).
Like-named read-outs stand apart in the source and are kept apart here.

Tests used:
patient in SRSE = assay: Treatment of one patient in super-refractory status epilepticus (SRSE) with allopregnanolone infusion; assay type: in vivo, human
Text: A physician at the Massachusetts General Hospital, Boston, Mass. treated one patient in SRSE with allopregnanolone in a hydroxyl-propyl beta cyclodextrin formulation. The patient was a previously-healthy, person, college graduate who was started on allopregnanolone on their 92nd day of SRSE.
During their hospital course, the patient had previously been treated with propofol, midazolam, lacosamide, phenytoin, phenobarbital, ketamine, clonazepam, levetiracetam, valproate, pentobarbital, topiramate, steroids, pyridoxine, coq-10, lidocaine, electroconvulsive therapy (ECT), bromides, hypothermia, a ketogenic diet, and acupuncture.
(§1) At the time that allopregnanolone was started, the patient was still in a pentobarbital-induced coma as well as receiving lacosamide, phenobarbital, clonazepam, and levetiracetam. The patient was started on allopregnanolone at a continuous infusion rate of 86 μg/kg/h for 5 days, after which the allopregnanolone was rapidly tapered and discontinued over a 24-hour period. Plasma samples were drawn at 5 h, 29 h, 53 h, 77 h, 101 h, 125 h, 149 h, and 173 h and are shown on FIG. 2. The plasma level rose and by Day 2 had achieved the target level of 150 nmoles/L. The pentobarbital was tapered and discontinued over the first 36 hours of allopregnanolone therapy. […] They continued to improve and was conversant, making jokes, and in a rehabilitation facility as of April 2013.

[1] = Plasma exposure of allopregnanolone from human SE study; assay type: in vivo; conditions: by Day 2; continuous IV infusion 86 μg/kg/h; single SRSE patient
Experimental: FIG. 2. Plasma exposure of allopregnanolone from human SE study. Plasma concentration profile over time of allopregnanolone in a single patient. The patient was dosed allopregnanolone (ALLO) at 1.5 mg/mL in 6% hydroxypropyl-β-cyclodextrin in 0.9% sodium chloride intravenously for 5 days (120 h). The infusion rate was 86 μg/kg/h. The patient was dosed 5.6 mg/h of allopregnanolone at 3.8 mL/h. Plasma concentration was analyzed 2 hours prior to the start of infusion and then 52, 76, 100, 124, and 148 hours post-infusion.
as §1

[2] = system: patients with status epilepticus; conditions: cited from earlier work

## CC(=O)[C@H]1CC[C@H]2[C@@H]3CC[C@H]4C[C@H](O)CC[C@]4(C)[C@H]3CC[C@]12C [allopregnanolone, 3 alpha-hydroxy-5 alpha-pregnan-20-one]
Patient in SRSE; 86 μg/kg/h for 5 days, then taper over 24 hours
  adverse events attributed to allopregnanolone: no adverse events
Patient in SRSE; 36-hour time point, patient entirely weaned from pentobarbital, infusion 86 μg/kg/h
  EEG: had begun to normalize
Patient in SRSE; at 72 hours, infusion 86 μg/kg/h
  clinical state of the patient: awake and followed simple midline commands
[1]
  plasma level: 150 nM

## O=C1Nc2ccc(Cl)cc2C(c2ccccc2Cl)=NC1O (stereo not drawn) [lorazepam]
[2]; intravenous (IV) treatment
  patients who did not respond to first line treatment: 36.6%

## Cc1ncc2n1-c1ccc(Cl)cc1C(c1ccccc1F)=NC2 [midazolam]
[2]; intramuscular (IM) treatment
  patients who did not respond to first line treatment: 26.6%
